Literature values as cited in patent US8841262B2, “Agent for inhibiting peritoneal membrane thickening” (CCI Corporation, priority 2009, dated 2014).

Assays:
[1] = tested on: peritoneal membrane thickening; settings: ganciclovir infused into the abdominal cavity, in 2 weeks; reported in Non-Patent Literature 3
[2] = tested on: vascular endothelial growth factor (VEGF); settings: administration of TNP-470, reported in Non-Patent Literature 1

SMILES	peritoneal membrane thickening after chlorhexidine [1]	myofibroblastic cell proliferation [2]	neoangiogenesis [2]
Nc1nc(O)c2ncn(COC(CO)CO)c2n1 [ganciclovir]	alleviated	–	–
CO[C@@H]1[C@H](OC(=O)NC(=O)CCl)CC[C@]2(CO2)[C@H]1[C@@]1(C)O[C@@H]1CC=C(C)C [TNP-470]	–	suppression	inhibition
